Reference: PubChem BioAssay AID1259407 (Chemical Carcinogenesis Research Information System (CCRIS), 2018)
The source made the active and inactive calls. How the calls were made is not given here.

System: CCRIS mutagenicity, Ames/micronucleus/aberration tests
Assay: CCRIS mutagenicity studies

Which results are given for `CNNCc1ccc(C(=O)NC(C)C)cc1`?
mutagenic call (Test System: AMES SALMONELLA TYPHIMURIUM, Strain/Indicator: TA97, Metabolic Activation: HAMSTER, LIVER, S-9, AROCLOR 1254 (10 OR 30%), Method: PREINCUBATION): inactive; negative; mutagenic call (Test System: AMES SALMONELLA TYPHIMURIUM, Strain/Indicator: TA97, Metabolic Activation: NONE, Method: PREINCUBATION): inactive; negative; mutagenic call (Test System: AMES SALMONELLA TYPHIMURIUM, Strain/Indicator: TA97, Metabolic Activation: RAT, LIVER, S-9, AROCLOR 1254 (10 OR 30%), Method: PREINCUBATION): inactive; negative; mutagenic call (Test System: AMES SALMONELLA TYPHIMURIUM, Strain/Indicator: TA98, Metabolic Activation: HAMSTER, LIVER, S-9, AROCLOR 1254 (10 OR 30%), Method: PREINCUBATION): inactive; negative; mutagenic call (Test System: AMES SALMONELLA TYPHIMURIUM, Strain/Indicator: TA98, Metabolic Activation: NONE, Method: PREINCUBATION): inactive; negative; mutagenic call (Test System: AMES SALMONELLA TYPHIMURIUM, Strain/Indicator: TA98, Metabolic Activation: NONE, Method: STANDARD PLATE): inactive; negative; mutagenic call (Test System: AMES SALMONELLA TYPHIMURIUM, Strain/Indicator: TA98, Metabolic Activation: RAT, LIVER, S-9, AROCLOR 1254 (10 OR 30%), Method: PREINCUBATION): inactive; negative; mutagenic call (Test System: AMES SALMONELLA TYPHIMURIUM, Strain/Indicator: TA98, Metabolic Activation: S-9, Method: PREINCUBATION): inactive; negative; mutagenic call (Test System: AMES SALMONELLA TYPHIMURIUM, Strain/Indicator: TA98, Metabolic Activation: S-9, Method: STANDARD PLATE): inactive; negative; mutagenic call (Test System: AMES SALMONELLA TYPHIMURIUM, Strain/Indicator: TA100, Metabolic Activation: HAMSTER, LIVER, S-9, AROCLOR 1254 (10 OR 30%), Method: PREINCUBATION): inactive; negative; mutagenic call (Test System: AMES SALMONELLA TYPHIMURIUM, Strain/Indicator: TA100, Metabolic Activation: NONE, Method: PREINCUBATION): inactive; negative; mutagenic call (Test System: AMES SALMONELLA TYPHIMURIUM, Strain/Indicator: TA100, Metabolic Activation: NONE, Method: STANDARD PLATE): inactive; negative; mutagenic call (Test System: AMES SALMONELLA TYPHIMURIUM, Strain/Indicator: TA100, Metabolic Activation: RAT, LIVER, S-9, AROCLOR 1254 (10 OR 30%), Method: PREINCUBATION): inactive; negative; mutagenic call (Test System: AMES SALMONELLA TYPHIMURIUM, Strain/Indicator: TA100, Metabolic Activation: RAT, LIVER, S-9, PYRAZOLE, Method: PREINCUBATION): inactive; negative; mutagenic call (Test System: AMES SALMONELLA TYPHIMURIUM, Strain/Indicator: TA100, Metabolic Activation: S-9, Method: PREINCUBATION): inactive; negative; mutagenic call (Test System: AMES SALMONELLA TYPHIMURIUM, Strain/Indicator: TA100, Metabolic Activation: S-9, Method: STANDARD PLATE): inactive; negative; mutagenic call (Test System: AMES SALMONELLA TYPHIMURIUM, Strain/Indicator: TA1530 (PKM101), Metabolic Activation: RAT, LIVER, S-9, ETHANOL, Method: PREINCUBATION): inactive; negative; mutagenic call (Test System: AMES SALMONELLA TYPHIMURIUM, Strain/Indicator: TA1530 (PKM101), Metabolic Activation: RAT, LIVER, S-9, PYRAZOLE, Method: PREINCUBATION): inactive; negative; mutagenic call (Test System: AMES SALMONELLA TYPHIMURIUM, Strain/Indicator: TA1535, Metabolic Activation: HAMSTER, LIVER, S-9, AROCLOR 1254 (10 OR 30%), Method: PREINCUBATION): inactive; negative; mutagenic call (Test System: AMES SALMONELLA TYPHIMURIUM, Strain/Indicator: TA1535, Metabolic Activation: NONE, Method: PREINCUBATION): inactive; negative; mutagenic call (Test System: AMES SALMONELLA TYPHIMURIUM, Strain/Indicator: TA1535, Metabolic Activation: RAT, LIVER, S-9, AROCLOR 1254 (10 OR 30%), Method: PREINCUBATION): inactive; negative; mutagenic call (Test System: AMES SALMONELLA TYPHIMURIUM, Strain/Indicator: TA1535, Metabolic Activation: RAT, LIVER, S-9, PYRAZOLE, Method: PREINCUBATION): inactive; negative; mutagenic call (Test System: AMES SALMONELLA TYPHIMURIUM, Strain/Indicator: TA1537, Metabolic Activation: HAMSTER, LIVER, S-9, AROCLOR 1254 (10 OR 30%), Method: PREINCUBATION): inactive; negative; mutagenic call (Test System: AMES SALMONELLA TYPHIMURIUM, Strain/Indicator: TA1537, Metabolic Activation: NONE, Method: PREINCUBATION): inactive; negative; mutagenic call (Test System: AMES SALMONELLA TYPHIMURIUM, Strain/Indicator: TA1537, Metabolic Activation: RAT, LIVER, S-9, AROCLOR 1254 (10 OR 30%), Method: PREINCUBATION): inactive; negative; mutagenic call (Test System: CHINESE HAMSTER OVARY, Strain/Indicator: CHO-K1-BH4 (HGPRT), Metabolic Activation: RAT, LIVER, S-9, AROCLOR, Method: SUSPENSION/PLATE): active; positive; mutagenic call (Test System: CHINESE HAMSTER V-79, Strain/Indicator: V-79/6-THIOGUANINE, Metabolic Activation: NONE, Method: CELL-MEDIATED): active; positive; mutagenic call (Test System: CHINESE HAMSTER V-79, Strain/Indicator: V-79/6-THIOGUANINE, Metabolic Activation: RAT, LIVER, HEPATOCYTES, AROCLOR 1254, Method: CELL-MEDIATED): active; positive; mutagenic call (Test System: CHINESE HAMSTER V-79, Strain/Indicator: V-79/6-THIOGUANINE, Metabolic Activation: RAT, LIVER, HEPATOCYTES, Method: CELL-MEDIATED): active; positive; mutagenic call (Test System: CHINESE HAMSTER V-79, Strain/Indicator: V-79/6-THIOGUANINE, Metabolic Activation: RAT, LIVER, S-9, AROCLOR 1254, Method: CELL-MEDIATED): active; positive; mutagenic call (Test System: CHINESE HAMSTER V-79, Strain/Indicator: V-79/6-THIOGUANINE, Metabolic Activation: RAT, LIVER, S-9, Method: CELL-MEDIATED): active; positive; mutagenic call (Test System: E. COLI, Strain/Indicator: WP2 (HCR), Metabolic Activation: NONE, Method: STANDARD PLATE): inactive; negative; mutagenic call (Test System: E. COLI, Strain/Indicator: WP2 (HCR), Metabolic Activation: S-9, Method: STANDARD PLATE): inactive; negative; mutagenic call (Test System: E. COLI, Strain/Indicator: WP2 (PKM101), Metabolic Activation: RAT, LIVER, S-9, PYRAZOLE, Method: PREINCUBATION): inactive; negative; mutagenic call (Test System: E. COLI, Strain/Indicator: WP2 UVRA (PKM101), Metabolic Activation: RAT, LIVER, S-9, PYRAZOLE, Method: PREINCUBATION): inactive; negative; mutagenic call (Test System: E. COLI, Strain/Indicator: WP2 UVRA, Metabolic Activation: HAMSTER, LIVER, S-9, AROCLOR 1254, Method: STANDARD PLATE): inactive; negative; mutagenic call (Test System: E. COLI, Strain/Indicator: WP2 UVRA, Metabolic Activation: HAMSTER, LIVER, S-9, Method: STANDARD PLATE): inactive; negative; mutagenic call (Test System: E. COLI, Strain/Indicator: WP2 UVRA, Metabolic Activation: MOUSE, LIVER, S-9, AROCLOR 1254, Method: STANDARD PLATE): inactive; negative; mutagenic call (Test System: E. COLI, Strain/Indicator: WP2 UVRA, Metabolic Activation: MOUSE, LIVER, S-9, Method: STANDARD PLATE): inactive; negative; mutagenic call (Test System: E. COLI, Strain/Indicator: WP2 UVRA, Metabolic Activation: NONE, Method: STANDARD PLATE): inactive; negative; mutagenic call (Test System: E. COLI, Strain/Indicator: WP2 UVRA, Metabolic Activation: RAT, LIVER, S-9, AROCLOR 1254, Method: STANDARD PLATE): inactive; negative; mutagenic call (Test System: E. COLI, Strain/Indicator: WP2 UVRA, Metabolic Activation: RAT, LIVER, S-9, Method: STANDARD PLATE): inactive; negative; mutagenic call (Test System: MOUSE LYMPHOMA, Strain/Indicator: L5178Y (HGPRT), Metabolic Activation: NONE, Method: SUSPENSION/PLATE): active; positive; mutagenic call (Test System: MOUSE LYMPHOMA, Strain/Indicator: L5178Y (TK+/TK-), Metabolic Activation: NONE, Method: MICROWELL): active; positive; mutagenic call (Test System: MOUSE LYMPHOMA, Strain/Indicator: L5178Y (TK+/TK-), Metabolic Activation: NONE, Method: MINIWELL): active; positive; mutagenic call (Test System: MOUSE LYMPHOMA, Strain/Indicator: L5178Y (TK+/TK-), Metabolic Activation: RAT, LIVER, S-9, AROCLOR 1242 AND 1254 (2:1), Method: SUSPENSION/PLATE): active; positive; mutagenic call (Test System: MOUSE LYMPHOMA, Strain/Indicator: L5178Y (TK+/TK-), Metabolic Activation: RAT, LIVER, S-9, AROCLOR 1254, Method: SUSPENSION/PLATE): active; positive
